Counter-ions that a name gives are not always drawn. Like-named read-outs stand apart in the source and are kept apart here.
Columns and labels:
Acinetobacter baumannii [1] = test: MIC, sole activity (no second agent); assay type: cell-based
Procedure, shortened: (§1)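 First, isolated colonies grown 18-24 hours on Mueller-Hinton agar were suspended to 0.5 McFarland; next, up to four strains per pathogen were tested in duplicate in cation-adjusted MHB; finally, the lower concordant value or modal repeat value was reported against Polymyxin B.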

Pseudomonas aeruginosa [2] = test: MIC, sole activity (no second agent); assay type: cell-based
Procedure, shortened: as §1

Klebsiella pneumoniae [3] = test: MIC, sole activity (no second agent); assay type: cell-based
Procedure, shortened: as §1

Escherichia coli [4] = test: MIC, sole activity (no second agent); assay type: cell-based
Procedure, shortened: as §1

HK-2 cell line = test: In vitro renal cell toxicity assay (resazurin reduction); assay type: cell-based, human
Acinetobacter baumannii [5] = test: MIC, compound in combination with a second agent (broth microdilution); assay type: cell-based; details: 1:1 (wt:wt) combination with Rifampicin, MIC = total drug concentration
Procedure, shortened: (§2)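 MIC = combined concentration of test compound plus partner agent, mixed at equal mass (1:1 w/w, salt form as used). Up to four strains per species; colonies adjusted to 0.5 McFarland. Run in duplicate; >2-fold disagreement invalidates the run.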

Pseudomonas aeruginosa [6] = test: as above; assay type: cell-based; details: 1:1 (wt:wt) combination with Rifampicin, MIC = total drug concentration
Procedure, shortened: as §2

Klebsiella pneumoniae [7] = test: as above; assay type: cell-based; details: 1:1 (wt:wt) combination with Rifampicin; MIC = total drug concentration; strain CCUG-59348
Procedure, shortened: as §2

Escherichia coli [8] = test: as above; assay type: cell-based; details: 1:1 (wt:wt) combination with Rifampicin, MIC = total drug concentration
Procedure, shortened: as §2

P. aeruginosa ATCC 27853 = details: ATCC 27853, in vivo, iv, 9 h
[9] = Table 6A, no second agent, different supplier of Cation-adjusted MHB

MIC A. baumannii ATCC BAA-747 (Acinetobacter baumannii [1]; [9]): 1 micrograms/mL
MIC A. baumannii NCTC 13424 (Acinetobacter baumannii [1]; [9]): 2 micrograms/mL
MIC A. baumannii ATCC13424 (Acinetobacter baumannii [1]; in the absence of Rifampicin, strain ATCC13424): 0.125 micrograms/mL
MIC A. baumannii ATCCBAA-747 (Acinetobacter baumannii [1]; in the absence of Rifampicin, strain ATCCBAA-747): 1 micrograms/mL
MIC A. baumannii CCUG57249 (Acinetobacter baumannii [1]; in the absence of Rifampicin, strain CCUG 57249): 1 micrograms/mL
MIC A. baumannii NCTC 13423 (Acinetobacter baumannii [1]; in the absence of Rifampicin, strain NCTC13423): 0.25 micrograms/mL
MIC P. aeruginosa ATCC 27853 (Pseudomonas aeruginosa [2]; [9]): 0.25 micrograms/mL
MIC P. aeruginosa CCUG 59347 (Pseudomonas aeruginosa [2]; [9]): 0.5 micrograms/mL
MIC P. aeruginosa ATCC 27853 (Pseudomonas aeruginosa [2]; in the absence of Rifampicin, strain ATCC27853): 0.125 micrograms/mL
MIC P. aeruginosa ATCC-47 (Pseudomonas aeruginosa [2]; in the absence of Rifampicin, strain ATCC-47): 1 micrograms/mL
MIC P. aeruginosa ATCCCRM-9027 (Pseudomonas aeruginosa [2]; in the absence of Rifampicin, strain ATCCCRM-9027): 0.125 micrograms/mL
MIC P. aeruginosa CCUG 59626 (Pseudomonas aeruginosa [2]; in the absence of Rifampicin, strain CCUG 59626): ≤0.06 micrograms/mL
MIC K. pneumoniae ATCC 4352 (Klebsiella pneumoniae [3]; [9]): 1 micrograms/mL
MIC K. pneumoniae ATCC BAA-2146 (Klebsiella pneumoniae [3]; [9]): 2 micrograms/mL
MIC K. pneumoniae ATCC 4352 (Klebsiella pneumoniae [3]; in the absence of Rifampicin, strain ATCC 4352): 1 micrograms/mL
MIC K. pneumoniae ATCC-BAA2146 (Klebsiella pneumoniae [3]; in the absence of Rifampicin, strain ATCC-BAA2146): 32 micrograms/mL
MIC K. pneumoniae CCUG-59348 (Klebsiella pneumoniae [3]; in the absence of Rifampicin, strain CCUG-59348): >32 micrograms/mL
MIC E. coli ATCC25922 (Escherichia coli [4]; [9]): 2 micrograms/mL
MIC E. coli NCTC 13441 (Escherichia coli [4]; [9]): 2 micrograms/mL
MIC E. coli ATCC25922 (Escherichia coli [4]; in the absence of Rifampicin, strain ATCC25922): 2 micrograms/mL
MIC E. coli NCTC9001 (Escherichia coli [4]; in the absence of Rifampicin, strain NCTC9001): 4 micrograms/mL
MIC A. baumannii ATCC BAA-747 (Acinetobacter baumannii [5]; strain ATCC BAA-747): 0.125 micrograms/mL
MIC A. baumannii CCUG57249 (Acinetobacter baumannii [5]; strain CCUG57249): ≤0.06 micrograms/mL
MIC A. baumannii NCTC 13423 (Acinetobacter baumannii [5]; strain NCTC 13423): ≤0.06 micrograms/mL
MIC A. baumannii NCTC 13424 (Acinetobacter baumannii [5]; strain NCTC 13424): 0.125 micrograms/mL
MIC P. aeruginosa ATCC 27853 (Pseudomonas aeruginosa [6]; strain ATCC 27853): 0.125 micrograms/mL
MIC P. aeruginosa ATCC CRM-9027 (Pseudomonas aeruginosa [6]; strain ATCC CRM-9027): 0.25 micrograms/mL
MIC P. aeruginosa ATCC-47 (Pseudomonas aeruginosa [6]; strain ATCC-47): 0.125 micrograms/mL
MIC P. aeruginosa CCUG 59626 (Pseudomonas aeruginosa [6]; strain CCUG 59626): 0.125 micrograms/mL
MIC K. pneumoniae CCUG-59348 (Klebsiella pneumoniae [7]): 1 micrograms/mL
MIC E. coli ATCC25922 (Escherichia coli [8]; strain ATCC25922): ≤0.06 micrograms/mL
MIC E. coli NCTC9001 (Escherichia coli [8]; strain NCTC9001): 0.125 micrograms/mL
SMILES: CC(C)C[C@@H]1NC(=O)[C@@H](Cc2ccccc2)NC(=O)[C@H](CCN)NC(=O)[C@@H](NC(=O)[C@H](CCN)NC(=O)[C@@H](NC(=O)[C@H](CCN)NC(=O)CC(N)C2CCCCC2)C(C)O)CCNC(=O)[C@H](C(C)O)NC(=O)[C@H](CCN)NC(=O)[C@H](CCN)NC1=O (mixture of isomers) [Example 39, 3-(RS)-(3-Amino-3-cyclohexyl)propanoyl polymyxin B decapeptide, trifluoroacetate salt]
HK-2 IC50 rel to PMB (HK-2 cell line): 1.5-2
Log reduction from vehicle (CFU/g) (P. aeruginosa ATCC 27853; 2 mg/kg): 2.56 log CFU/g
Log reduction from vehicle (CFU/g) (P. aeruginosa ATCC 27853; 4 mg/kg): 3.88 log CFU/g

— patent publication US10407467B2, “Polymyxin derivatives and their use in combination therapy together with different antibiotics” (priority 2013, dated 2019)
